Data from patent US12213479B2, “Monoterpenoid/phenylpropanoid-containing compounds and methods of their making and use as herbicides” (KITTRICH CORPORATION, priority 2016, dated 2025).
Entries after “also recorded” stand apart in the source; their conditions may differ.

Tests used:
Corn plants = experiment: Soil drench assay, corn plants; assay type: in vivo; design: key to phytotoxicity (qualitative), soil drench: NOE: No Observable Effect; XXX: Dead; -: the lowest phytotoxic effect; --: phytotoxicity that did not result in death; ---: phytotoxicity that did not result in death; ------: the highest; settings: for phytotoxicity (qualitative), soil drench: Corn, 40 mL
Experimental: Corn plants were planted under ½″ of potting soil and watered every 2-3 days as necessary. Plants were grown in potting plants (6″ wide×4.5″ deep) with approximately 800 mL of soil for each plant. Seeds germinated approximately 4-7 days after being planted. Plants were grown in a greenhouse under a constant temperature and light environment (25±5° C., 12 hr: 12 hr light: dark cycle). Plants were grown until reaching 1-2 weeks old and 3-4 weeks old; these plants served as the “young” and “old” plants in this study, respectively. Formulations of the various active ingredients were created using the monoterpenoid derivatives, potassium hydroxide, and Triton-X 100™ to aid in the solvation of the active ingredient. […] Formulations were applied to the soil next to the base of the stem of the plant to avoid foliar contact. Observations were performed 2 days and 3 weeks after soil drench to determine the effects of the treatments on the various types and stages of plants.

Wood sorrel = experiment: Foliar spray, wood sorrel; assay type: in vivo; settings: 20 sprays of 1%; observed 2 days after exposure and later
Experimental: Wood sorrel on the ground of the greenhouse was also treated with active ingredient in order to better assess the effects of foliar treatments on multiple plant species. A patch of wood sorrel was (approximately 4′×3′) was treated with 20 sprays (mist setting) from a MAINStays ironing spray bottle. Effects of the spray were recorded 2 days after exposure.

[1] = tested on: Dandelion (Taraxacum officinale); experiment: Weed soil drench assay, dandelion; assay type: in vivo; settings: for Percentage mortality: Dandelions, 40 mL of 5% solution, soil drench; for chlorosis and phytotoxicity: dandelions, 40 mL of 5%, 2 days after application
Experimental: Dandelion seeds were obtained from native prairie fields in Ames, IA. Individual seeds were sown for each pot (6″ wide×4.5″ deep) with approximately 800 mL of soil for each plant. Only plants that germinated were used for the study. Plants were treated 1-2 weeks post emergence. Plants were watered every 2-3 days as needed.
Formulations of the various active ingredients were created using the monoterpenoid derivatives, potassium hydroxide, and Triton-X 100™ to aid in the solvation of the active ingredient. Formulations included 5% active ingredient by weight (0.5-1 g/100 ml water), with a 1:1 molar ratio of potassium hydroxide used to aid in the solvation (135-269 mg/100 mL for both thymyloxyacetic acid and carvacryloxyacetic acid). […] Observations were performed 2 days and 3 weeks after soil drench to determine the effects of the treatments on the various types and stages of plants. Phytotoxicity is reported as percentage of total plants treated compared to a control treatment that was exposed to a similar formulation (without the active monoterpenoid derivatives).

corn seeds = experiment: Germination assay, corn seeds coated with compound; settings: for corn seed germination at day 3: seed coating
Soybean plants = experiment: Foliar spray assay, soybean plants; assay type: in vivo; settings: 1% foliar spray; for phytotoxic effects on soybean plants (words), foliar spray: 1-month old soybean plants, up to 14 days after exposure; for chlorosis / leaf death: soybean plants
Experimental: Soybean plants were planted under 1 cm of potting soil and watered every 2-3 days as necessary. Plants were grown in pots (6″ wide×4.5″ deep) with approximately 800 mL of soil for each plant. Plants germinated approximately 3-5 days after being planted. Plants were grown in a greenhouse under a constant temperature and light environment (25±5° C., 12 hr:12 hr light:dark cycle). Plants were grown until reaching 4 weeks old and were then used for the foliar spray experiment.
Formulations were made to include 1% thymyloxyacetic acid, 0.269% potassium hydroxide, and 0.25% Triton-X 100™. Soybean plants were sprayed with 10 mists from a MAINStays™ Ironing Spray bottle set to the mist setting. This corresponded to the minimum amount necessary to cause dripping from the leaves of the plants. […] Plants were placed under high intensity light (directly below greenhouse lamps) and low intensity light (not under lamp/ambient light environment). Light intensity was chosen as a factor for this experimental design. […] This effect is greatly diminished under low intensity light conditions. If thymyloxyacetic acid is causing phytotoxicity in the same mechanism of action as other plant terpenoids, there should be a drastic difference in the phytotoxicity among these different levels of light intensity.

[2] = tested on: Waterhemp (Amaranthus tuberculatus); experiment: Toxicity assay (probit LC50), waterhemp; assay type: in vivo
From the text: Waterhemp seeds were obtained from the Department of Agronomy at Iowa State University. Individual seeds were sown for each pot (1.5″ wide×3″ deep) with approximately 7.5 g of soil for each plot. Five seeds/plot was sown into numerous plots. After one month of germination, germinated plants were counted in each plot and this number was used for the total number of plants challenged per plot in the toxicity assessment.
(§1) The total number of plants were counted in each plot in 24×6 hexagonal small plot planter tray. The number of germinated seeds in each plot was enumerated after one month, and for each plot this number was recorded and used as the total for each plot. Differing concentrations of thymyloxyacetic acid was applied in 5% Triton-X 100 and 1:1 molar ratio potassium hydroxide:thymyloxyacetic acid to aid in the solubility of the compound in water. Ten mL of solution was applied to each plot, and the mortality of the plants was assessed at 3 days and 2 weeks post application (for some treatments). Mortality at these time points were enumerated out of the total plants germinated in each plot at the beginning of the assay. At both time points, the total number of dead plants and total number of plants at the beginning of the assay were recorded for each observation. A Probit model was used to calculate the LC50 values for each of the compounds explored in this assay. A formulation control (with no active ingredient) was screened against a number of plants and factored into the final probit model. This formulation control had little-to-no effect by itself.

[3] = tested on: Cocklebur (Xanthium spp.); experiment: Toxicity assay (probit LC50), cocklebur; assay type: in vivo
From the text: Cocklebur burs were obtained from the Department of Agronomy at Iowa State University. Individual seeds were sown for each pot (1.5″ wide×3″ deep) with approximately 7.5 g of soil for each plot. One bur/plot was sown into numerous plots. After one month of germination, germinated plants were counted in each plot and this number was used for the total number of plants challenged per plot in the toxicity assessment.
as §1

[4] = tested on: various dicot weed species; experiment: Selectivity assessment, dicot weed species compared to bluegrass; assay type: in vivo; settings: range over various weed species
From the text: Kentucky bluegrass seeds were purchased in a bag under the commercial name of. Individual seeds were sown for each pot (1.5″ wide×3″ deep) with approximately 7.5 g of soil for each plot. 10 seeds/plot was sown into numerous plots. After one month of germination, germinated plants were counted in each plot and this number was used for the total number of plants challenged per plot in the toxicity assessment.
as §1, with “A formulation control (with no active ingredient) was screened against a number of plants and factored into the final probit model. This formulation control had little-to-no effect by itself.” left out

[5] = 2-days after treatment, Old Plants, 0.50%
[6] = 2-days after treatment, Old Plants, 1%
[7] = 2-days after treatment, Young Plants, 0.50%
[8] = 2-days after treatment, Young Plants, 1%
[9] = 3-weeks after treatment, Old Plants, 0.50%
[10] = 3-weeks after treatment, Old Plants, 1%
[11] = 3-weeks after treatment, Young Plants, 0.50%
[12] = 3-weeks after treatment, Young Plants, 1%
[13] = young plants, 2 days after exposure, both concentrations

Cc1ccc(C(C)C)cc1OCC(=O)O [carvacryloxyacetic acid, 2-(5-isopropyl-2-methylphenoxy)acetic acid]
effect on corn plants, soil drench (Corn plants; 3 weeks after exposure): caused phytotoxicity
effect on corn plants, soil drench (Corn plants; 3 weeks, 1%): did not cause mortality
phytotoxicity (qualitative), soil drench (Corn plants; [5]): -
phytotoxicity (qualitative), soil drench (Corn plants; [6]): --
phytotoxicity (qualitative), soil drench (Corn plants; [7]): -
phytotoxicity (qualitative), soil drench (Corn plants; [8]): -
phytotoxicity (qualitative), soil drench (Corn plants; [9]): XXX
phytotoxicity (qualitative), soil drench (Corn plants; [10]): XXX
phytotoxicity (qualitative), soil drench (Corn plants; [11]): XXX
phytotoxicity (qualitative), soil drench (Corn plants; [12]): --
effect on corn plants, soil drench (Corn plants; older plants, 2-days, 0.5%): did not cause any significant effects
effect on corn plants, soil drench (Corn plants; [13]): did not show any significant effects
phytotoxic effect on wood sorrel, foliar spray (Wood sorrel): Death followed quickly after 2 days post-exposure; also recorded: immediate and widespread chlorosis followed by relatively quick plant death
Percentage mortality ([1]; 2-days after treatment): 100%
Percentage mortality ([1]; 3-weeks after treatment): 100%
chlorosis and phytotoxicity [1]: significant chlorosis and phytotoxicity
corn seed germination at day 3 (corn seeds): some level of germination

Cc1ccc(C(C)C)c(OCC(=O)O)c1 [thymyloxyacetic acid, 2-(2-isopropyl-5-methylphenoxy)acetic acid]
effect on corn plants, soil drench (Corn plants; 3 weeks after exposure): caused phytotoxicity
phytotoxicity (qualitative), soil drench (Corn plants; [5]): --
phytotoxicity (qualitative), soil drench (Corn plants; [6]): ---
phytotoxicity (qualitative), soil drench (Corn plants; [7]): -
phytotoxicity (qualitative), soil drench (Corn plants; [8]): -
phytotoxicity (qualitative), soil drench (Corn plants; [9]): XXX
phytotoxicity (qualitative), soil drench (Corn plants; [10]): XXX
phytotoxicity (qualitative), soil drench (Corn plants; [11]): XXX
phytotoxicity (qualitative), soil drench (Corn plants; [12]): XXX
effect on corn plants, soil drench (Corn plants; older plants, 2 days after treatment, 0.5% and 1%): significant phytotoxic effects
effect on corn plants, soil drench (Corn plants; [13]): did not show any significant effects
phytotoxic effects on soybean plants (words), foliar spray (Soybean plants): significant chlorosis and wilting
phytotoxic effects on soybean plants (words), foliar spray (Soybean plants; listed as Thymyloxyacetic acid): significant phytotoxic effects
chlorosis (Soybean plants; High intensity light): ✓
leaf death (Soybean plants; High intensity light): ✓
chlorosis (Soybean plants; Low intensity light): ✓
leaf death (Soybean plants; Low intensity light): ✓
Percentage mortality ([1]; 2-days after treatment): 100%
Percentage mortality ([1]; 3-weeks after treatment): 100%
chlorosis and phytotoxicity [1]: significant chlorosis and phytotoxicity
LC50 Value ([2]; Waterhemp): 700 ppm
Selective Toxicity Compared to Bluegrass ([2]; Waterhemp compared to bluegrass): 5
LC50 Value ([3]; Cocklebur): 1530 ppm
Selective Toxicity Compared to Bluegrass ([3]; Cocklebur compared to bluegrass): 2.29
selectivity ratio compared to a blue grass species [4]: 2.06-5 fold
inhibition of corn seed germination (corn seeds; seed coating 1% weight compound/weight seed, 3, 5, 7 days): second most significant inhibition
corn seed germination at day 3 (corn seeds): prevented any germination
